In patent US20120029187A1, “HALOALKYLSULFONANILIDE DERIVATIVE” (Nissan Chemical Industries, Ltd., priority 2009, published 2012):

What was measured:
Assay type in all cases: in vivo
[1] = tested on: Italian ryegrass; experiment: Test Example 3: herbicidal effects in soil treatment; details: dose 3.2 g/a
In short: (§1)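 Seeds were sown in sterilized diluvial soil and covered with about 1.5 cm of soil. Compounds, formulated as emulsifiable concentrates and diluted with water, were sprayed evenly over the soil surface at set doses in g/a. Herbicidal effect was scored on a rating scale three weeks later.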

[2] = tested on: barnyardgrass; experiment: as above; details: dose 3.2 g/a
In short: as §1

[3] = tested on: beadstraw; experiment: as above; details: dose 3.2 g/a
In short: as §1

[4] = tested on: common chickweed; experiment: as above; details: dose 3.2 g/a
In short: as §1

[5] = tested on: common lambsquater; experiment: as above; details: dose 3.2 g/a
In short: as §1

[6] = tested on: common ragweed; experiment: as above; details: dose 3.2 g/a
In short: as §1

[7] = tested on: giant foxtail; experiment: as above; details: dose 3.2 g/a
In short: as §1

[8] = tested on: large crabgrass; experiment: as above; details: dose 3.2 g/a
In short: as §1

[9] = tested on: redroot pigweed; experiment: as above; details: dose 3.2 g/a
In short: as §1

[10] = tested on: velvetleaf; experiment: as above; details: dose 3.2 g/a
In short: as §1

[11] = tested on: water foxtail; experiment: as above; details: dose 3.2 g/a
In short: as §1

[12] = tested on: wild oat; experiment: as above; details: dose 3.2 g/a
In short: as §1

[13] = tested on: barnyardgrass; experiment: Test Example 1: herbicidal effects in preemergence treatment under submerged conditions; details: dose 2.52 g/a
In short: (§2)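 Alluvial soil flooded to 4 cm depth; barnyardgrass, bulrush and ducksalad sown and 2.5-leaf rice seedlings transplanted. Same day, water-diluted emulsifiable concentrates applied to the water surface at set doses (g/a). Kept at 25–30 °C in greenhouse; effects scored 0–5 by mortality after three weeks.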

[14] = tested on: bulrush; experiment: as above; details: dose 2.52 g/a
In short: as §2

[15] = tested on: ducksalad; experiment: as above; details: dose 2.52 g/a
In short: as §2

[16] = tested on: transplanted rice; experiment: Test Example 1: preemergence treatment under submerged conditions, effect on crop; details: dose 2.52 g/a
In short: as §2

[17] = tested on: barnyardgrass; experiment: Test Example 2: herbicidal effects during the vegetation period under submerged conditions; details: treatment during the vegetation period under submerged conditions; dose 2.52 g/a
In short: (§3)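 Barnyardgrass, bulrush and ducksalad were co-sown in alluvial soil flooded to 4 cm and grown in a greenhouse at 25 to 30° C. At the 1- or 2-leaf stage, water-diluted emulsifiable concentrates went onto the water surface at set doses (g/a). Herbicidal effect was scored three weeks later on a graded scale.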

[18] = tested on: bulrush; experiment: as above; details: treatment during the vegetation period under submerged conditions; dose 2.52 g/a
In short: as §3

[19] = tested on: ducksalad; experiment: as above; details: treatment during the vegetation period under submerged conditions; dose 2.52 g/a
In short: as §3

[20] = tested on: posumbu knotweed; experiment: Test Example 3: herbicidal effects in soil treatment; details: dose 3.2 g/a
In short: as §1

[21] = tested on: Italian ryegrass; experiment: Test Example 4: herbicidal effect in foliage treatment; details: dose 3.2 g/a
In short: (§4)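 Seeds sown in sterilized diluvial soil under ~1.5 cm soil cover and grown 14 days in a greenhouse at 25 to 30° C. Emulsifiable concentrates diluted with water were then sprayed uniformly on foliage at predetermined doses (g/a). Herbicidal effect was scored three weeks after application on a graded evaluation scale.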

[22] = tested on: barnyardgrass; experiment: as above; details: dose 3.2 g/a
In short: as §4

[23] = tested on: beadstraw; experiment: as above; details: dose 3.2 g/a, three weeks after application
In short: as §4

[24] = tested on: common chickweed; experiment: as above; details: dose 3.2 g/a
In short: as §4

[25] = tested on: common lambsquater; experiment: as above; details: dose 3.2 g/a
In short: as §4

[26] = tested on: common ragweed; experiment: as above; details: dose 3.2 g/a
In short: as §4

[27] = tested on: giant foxtail; experiment: as above; details: dose 3.2 g/a
In short: as §4

[28] = tested on: large crabgrass; experiment: as above; details: dose 3.2 g/a
In short: as §4

[29] = tested on: posumbu knotweed; experiment: as above; details: dose 3.2 g/a
In short: as §4

[30] = tested on: redroot pigweed; experiment: as above; details: dose 3.2 g/a
In short: as §4

[31] = tested on: velvetleaf; experiment: as above; details: dose 3.2 g/a
In short: as §4

[32] = tested on: water foxtail; experiment: as above; details: dose 3.2 g/a
In short: as §4

[33] = tested on: wild oat; experiment: as above; details: dose 3.2 g/a, three weeks after the application
In short: as §4

[34] = three weeks after the application

CCOC(=O)N(c1ccccc1CN1C(=O)C(Br)C(C)(C)OC1C)S(=O)(=O)C(F)(F)F (stereo not shown) [II-76]
herbicidal effect, H: Italian ryegrass [1]: 0 (mortality of less than 5% (almost ineffective)) | herbicidal effect, A: barnyardgrass [2]: 3 (mortality of at least 40% and less than 70%) | herbicidal effect, O: beadstraw [3]: 5 (mortality of 90% or above (nearly complete death)) | herbicidal effect, N: common chickweed [4]: 3 (mortality of at least 40% and less than 70%) | herbicidal effect, L: common lambsquater [5]: 3 (mortality of at least 40% and less than 70%) | herbicidal effect, J: common ragweed [6]: 0 (mortality of less than 5% (almost ineffective)) | herbicidal effect, E: giant foxtail [7]: 0 (mortality of less than 5% (almost ineffective)) | herbicidal effect, D: large crabgrass [8]: 3 (mortality of at least 40% and less than 70%) | herbicidal effect, K: redroot pigweed [9]: 3 (mortality of at least 40% and less than 70%) | herbicidal effect, I: velvetleaf [10]: 3 (mortality of at least 40% and less than 70%) | herbicidal effect, G: water foxtail [11]: 5 (mortality of 90% or above (nearly complete death)) | herbicidal effect, F: wild oat [12]: 0 (mortality of less than 5% (almost ineffective))

CCC(=O)N(c1ccccc1CN1COC2(CCCC2)CC1=O)S(=O)(=O)C(F)(F)F [II-65]
A: barnyardgrass, herbicidal effect (evaluation scale 0-5) [13]: 5 (mortality of 90% or above (nearly complete death)) | B: bulrush, herbicidal effect (evaluation scale 0-5) [14]: 5 (mortality of 90% or above (nearly complete death)) | C: ducksalad, herbicidal effect (evaluation scale 0-5) [15]: 5 (mortality of 90% or above (nearly complete death)) | a: transplanted rice, effect on crop (evaluation scale 0-5) [16]: 0 (mortality of less than 5% (almost ineffective)) | A: barnyardgrass, herbicidal effect (evaluation scale 0-5) [17]: 5 (mortality of 90% or above (nearly complete death)) | B: bulrush, herbicidal effect (evaluation scale 0-5) [18]: 5 (mortality of 90% or above (nearly complete death)) | C: ducksalad, herbicidal effect (evaluation scale 0-5) [19]: 5 (mortality of 90% or above (nearly complete death)) | H: Italian ryegrass, herbicidal effect (evaluation scale 0-5) [1]: 5 (mortality of 90% or above (nearly complete death)) | A: barnyardgrass, herbicidal effect (evaluation scale 0-5) [2]: 5 (mortality of 90% or above (nearly complete death)) | O: beadstraw, herbicidal effect (evaluation scale 0-5) [3]: 0 (mortality of less than 5% (almost ineffective)) | N: common chickweed, herbicidal effect (evaluation scale 0-5) [4]: 5 (mortality of 90% or above (nearly complete death)) | L: common lambsquater, herbicidal effect (evaluation scale 0-5) [5]: 0 (mortality of less than 5% (almost ineffective)) | J: common ragweed, herbicidal effect (evaluation scale 0-5) [6]: 4 (mortality of at least 70% and less than 90%) | E: giant foxtail, herbicidal effect (evaluation scale 0-5) [7]: 5 (mortality of 90% or above (nearly complete death)) | D: large crabgrass, herbicidal effect (evaluation scale 0-5) [8]: 5 (mortality of 90% or above (nearly complete death)) | M: posumbu knotweed, herbicidal effect (evaluation scale 0-5) [20]: 4 (mortality of at least 70% and less than 90%) | K: redroot pigweed, herbicidal effect (evaluation scale 0-5) [9]: 2 (mortality of at least 20% and less than 40%) | I: velvetleaf, herbicidal effect (evaluation scale 0-5) [10]: 3 (mortality of at least 40% and less than 70%) | G: water foxtail, herbicidal effect (evaluation scale 0-5) [11]: 5 (mortality of 90% or above (nearly complete death)) | F: wild oat, herbicidal effect (evaluation scale 0-5) [12]: 0 (mortality of less than 5% (almost ineffective)) | H: Italian ryegrass, herbicidal effect ([21]; three weeks after application): 3 (mortality of at least 40% and less than 70%) | A: barnyardgrass, herbicidal effect ([22]; three weeks after application): 3 (mortality of at least 40% and less than 70%) | O: beadstraw, herbicidal effect [23]: 0 (mortality of less than 5% (almost ineffective)) | N: common chickweed, herbicidal effect ([24]; three weeks after application): 5 (mortality of 90% or above (nearly complete death)) | L: common lambsquater, herbicidal effect ([25]; three weeks after application): 2 (mortality of at least 20% and less than 40%) | J: common ragweed, herbicidal effect ([26]; three weeks after application): 3 (mortality of at least 40% and less than 70%) | E: giant foxtail, herbicidal effect ([27]; three weeks after application): 4 (mortality of at least 70% and less than 90%) | D: large crabgrass, herbicidal effect ([28]; three weeks after application): 3 (mortality of at least 40% and less than 70%) | M: posumbu knotweed, herbicidal effect ([29]; three weeks after application): 3 (mortality of at least 40% and less than 70%) | K: redroot pigweed, herbicidal effect ([30]; three weeks after application): 0 (mortality of less than 5% (almost ineffective)) | I: velvetleaf, herbicidal effect ([31]; three weeks after application): 3 (mortality of at least 40% and less than 70%) | G: water foxtail, herbicidal effect ([32]; three weeks after application): 5 (mortality of 90% or above (nearly complete death))

CC1OC(C)(C)CC(=O)N1Cc1ccccc1NS(=O)(=O)C(F)(F)F (stereo not shown) [II-72]
A: barnyardgrass, herbicidal effect (evaluation scale 0-5) [13]: 5 (mortality of 90% or above (nearly complete death)) | B: bulrush, herbicidal effect (evaluation scale 0-5) [14]: 5 (mortality of 90% or above (nearly complete death)) | C: ducksalad, herbicidal effect (evaluation scale 0-5) [15]: 5 (mortality of 90% or above (nearly complete death)) | a: transplanted rice, effect on crop (evaluation scale 0-5) [16]: 3 (mortality of at least 40% and less than 70%) | A: barnyardgrass, herbicidal effect (evaluation scale 0-5) [17]: 5 (mortality of 90% or above (nearly complete death)) | B: bulrush, herbicidal effect (evaluation scale 0-5) [18]: 5 (mortality of 90% or above (nearly complete death)) | C: ducksalad, herbicidal effect (evaluation scale 0-5) [19]: 5 (mortality of 90% or above (nearly complete death)) | H: Italian ryegrass, herbicidal effect (evaluation scale 0-5) [1]: 5 (mortality of 90% or above (nearly complete death)) | A: barnyardgrass, herbicidal effect (evaluation scale 0-5) [2]: 5 (mortality of 90% or above (nearly complete death)) | O: beadstraw, herbicidal effect (evaluation scale 0-5) [3]: 4 (mortality of at least 70% and less than 90%) | N: common chickweed, herbicidal effect (evaluation scale 0-5) [4]: 4 (mortality of at least 70% and less than 90%) | L: common lambsquater, herbicidal effect (evaluation scale 0-5) [5]: 0 (mortality of less than 5% (almost ineffective)) | J: common ragweed, herbicidal effect (evaluation scale 0-5) [6]: 4 (mortality of at least 70% and less than 90%) | E: giant foxtail, herbicidal effect (evaluation scale 0-5) [7]: 5 (mortality of 90% or above (nearly complete death)) | D: large crabgrass, herbicidal effect (evaluation scale 0-5) [8]: 5 (mortality of 90% or above (nearly complete death)) | K: redroot pigweed, herbicidal effect (evaluation scale 0-5) [9]: 3 (mortality of at least 40% and less than 70%) | G: water foxtail, herbicidal effect (evaluation scale 0-5) [11]: 5 (mortality of 90% or above (nearly complete death)) | H: Italian ryegrass, herbicidal effect [21, 34]: 5 (mortality of 90% or above (nearly complete death)) | A: barnyardgrass, herbicidal effect [22, 34]: 4 (mortality of at least 70% and less than 90%) | N: common chickweed, herbicidal effect [24, 34]: 3 (mortality of at least 40% and less than 70%) | L: common lambsquater, herbicidal effect [25, 34]: 1 (mortality of at least 5% and less than 20%) | J: common ragweed, herbicidal effect [26, 34]: 3 (mortality of at least 40% and less than 70%) | E: giant foxtail, herbicidal effect [27, 34]: 4 (mortality of at least 70% and less than 90%) | D: large crabgrass, herbicidal effect [28, 34]: 4 (mortality of at least 70% and less than 90%) | M: posumbu knotweed, herbicidal effect [29, 34]: 3 (mortality of at least 40% and less than 70%) | K: redroot pigweed, herbicidal effect [30, 34]: 2 (mortality of at least 20% and less than 40%) | I: velvetleaf, herbicidal effect [31, 34]: 5 (mortality of 90% or above (nearly complete death)) | G: water foxtail, herbicidal effect [32, 34]: 5 (mortality of 90% or above (nearly complete death)) | F: wild oat, herbicidal effect [33]: 1 (mortality of at least 5% and less than 20%)
